Test results reported in ChEMBL document CHEMBL1149552, “Praziquantel derivatives I: Modification of the aromatic ring” (2007).
In brackets after ≈: the same amount, converted by molar mass.

Legend:
Assay type in all cases: functional
Schistosoma mansoni [1] = test: Antischistosomal activity against Schistosoma mansoni assessed as 100% killing of shcistomes relative to Praziquantel
Schistosoma mansoni [2] = test: Antischistosomal activity against Schistosoma mansoni assessed as 100% killing of schistosomes
Schistosoma mansoni [3] = test: Antischistosomal activity against Schistosoma mansoni assessed as complete spastic paralysis
Schistosoma mansoni [4] = test: Antischistosomal activity against Schistosoma mansoni assessed as shcistomes paralysis relative to Praziquantel

Compound: O=C(C1CCC(O)CC1)N1CC(=O)N2CCc3ccccc3C2C1 (stereo unspecified)
- Activity (Schistosoma mansoni [1]): 1.5%
- MLC (Schistosoma mansoni [2]): 200 µM (≈ 65.7 µg/mL)
- Activity (Schistosoma mansoni [3]): 75 µM
- Activity (Schistosoma mansoni [4]): 1.3%

Compound: Nc1cccc(C(=O)N2CC(=O)N3CCc4ccccc4C3C2)c1 (stereo unspecified)
- Activity (Schistosoma mansoni [1]): 25%
- MLC (Schistosoma mansoni [2]): 12 µM (≈ 3.86 µg/mL)
- Activity (Schistosoma mansoni [3]): 7 µM
- Activity (Schistosoma mansoni [4]): 14.3%

Compound: CC(=O)Nc1ccc2c(c1)C1CN(C(=O)C3CCCCC3)CC(=O)N1CC2 (stereo unspecified)
- Activity (Schistosoma mansoni [1]): <1%
- MLC (Schistosoma mansoni [2]): >300 µM
- Activity (Schistosoma mansoni [3]): >300 µM
- Activity (Schistosoma mansoni [4]): <0.3%

Compound: O=C(C1CCCCC1)N1CC(=O)N2CCc3ccccc3C2C1 (stereo unspecified) [PRAZIQUANTEL]
- MLC (Schistosoma mansoni [2]): 3 µM (≈ 0.937 µg/mL)
- Activity (Schistosoma mansoni [3]): 1 µM

Compound: O=C(C1CCCCC1)N1CC(=O)N2CCc3ccc([N+](=O)[O-])cc3C2C1 (stereo unspecified)
- Activity (Schistosoma mansoni [1]): <1%
- MLC (Schistosoma mansoni [2]): >300 µM
- Activity (Schistosoma mansoni [3]): >300 µM
- Activity (Schistosoma mansoni [4]): <0.3%

Compound: Nc1ccc(C(=O)N2CC(=O)N3CCc4ccccc4C3C2)cc1 (stereo unspecified)
- Activity (Schistosoma mansoni [1]): 16.6%
- MLC (Schistosoma mansoni [2]): 18 µM (≈ 5.78 µg/mL)
- Activity (Schistosoma mansoni [3]): 7 µM
- Activity (Schistosoma mansoni [4]): 14.3%

Compound: Nc1ccc2c(c1)C1CN(C(=O)C3CCCCC3)CC(=O)N1CC2 (stereo unspecified)
- Activity (Schistosoma mansoni [1]): 10.7%
- MLC (Schistosoma mansoni [2]): 28 µM (≈ 9.17 µg/mL)
- Activity (Schistosoma mansoni [3]): 10 µM
- Activity (Schistosoma mansoni [4]): 10%
